6 compounds from patent US12673918B2, “Small molecule RPN13 inhibitors with antitumor properties” (The Johns Hopkins University, priority 2019, dated 2026) can be followed below.

Where two headings read alike, the source gives them in different places.

Data set [1] relates to polyubiquitinated proteins. In words: Western blot of polyubiquitinated proteins, SKOV3 cells. The class given is cell-based, human. As to conditions: 4 h. As to the method: FIG. 14A illustrates SKOV3 cells treated with compounds for 4 h and analyzed by Western blot analysis with antibody to ubiquitin.
Antibodies, reagents, and Western Blot Analyses: Cell lysate (10-20 μg total protein) prepared in MPER (Pierce) from each sample was subjected to SDS-PAGE, transferred to PVDF membranes and analyzed by Western blot using antibodies specific Bax (#2772, Cell Signaling), ubiquitin (P4D1, sc-8017, Santa Cruz), PARP (#9542, BD Pharmingen), actin (#66009, Protein Tech Group), Tubulin(#66031, Protein Tech Group), ADRM1/Rpn13 (D9Z1U, #12019, Cell Signaling), Lys48-linkled ubiquitin (Apu 2, 05-1307, (Millipore), Annexin V (#559763, BD pharmingen), caspase-3 (51-68655X, BD Pharmingen) at the dilutions recommended by the manufacturers, and for secondary antibodies either peroxidase-linked anti-mouse IgG or anti-rabbit IgG (GE Healthcare UK Ltd) were utilized, HRP conjugated streptavidin (N100, Thermo Fisher) at the recommended dilution (1:5000). MitoTracker Red CMXRos reagent was purchased from ThermoFisher #M7512. The blots were developed using HyGLO chemiluminescent detection reagent (Denville).

Another data set is described as follows: in vivo. As to conditions: female, CD1, mouse, ip. As for the experimental part: Pilot safety studies were performed in CD1 mice (n=3/dose group of healthy female mice aged 6-8 weeks) with increasing single doses delivered i.p. and the NOAEL (no-observed-adverse-effect level) was selected for further animal studies. […] Bortezomib was dissolved in a minimal amount of DMSO and further diluted with saline before injection in a dose finding study. […] To measure on-target inhibition of proteasome activity in mice, a leg muscle of CD-1 mice was transduced with the 4UbFL reporter construct. […] Briefly, mouse leg muscle was electroporated with 4UbFL plasmid and basal bioluminescence was measured after 24 hr using IVIS200 imager after injecting luciferin substrate. Mice were randomized (n=5/group) and treated with compounds in PEG400: Cremophor: Tween40 combination or vehicle alone as shown in Table 5 with one dose delivered by intraperitoneal injection. The mice were again imaged at 4 h, 24 h, 48 h post treatment.

Another data set has as its system FaDu. In words: cells. The settings on record: Homo sapiens.
The next data set relates to PEO14. In words: cells. The settings on record: read-out: cytotoxicity IC50 PEO14.
A further data set concerns SiHa. In words: MTT cytotoxicity assay, SiHa. For orientation: Tetrazolium assays rely on reduction of a dye to a coloured formazan, in cell work by metabolically active cells.
Another data set relates to KLE. The experiment in a line: MTT cytotoxicity assay, KLE. As to conditions: read-out: cytotoxicity IC50 KLE, Tables 3A/4B/4C.
The next data set deals with DLD1. The experiment in a line: MTT cytotoxicity assay, DLD1. The settings on record: Homo sapiens, DLD-1, read-out: cytotoxicity IC50 DLD1.
For a further data set, the system named is SKOV3. In words: MTT cytotoxicity assay, SKOV3. The settings on record: Homo sapiens.
In the next data set the test system is HCT116. In words: MTT cytotoxicity assay, HCT116.
A further data set concerns TC1-Lu. The experiment in a line: MTT cytotoxicity assay, TC1-Lu. As to conditions: read-out: cytotoxicity IC50 TC1-Lu.
The subject of the next data set is HEC-1A. The experiment in a line: MTT cytotoxicity assay, HEC-1A. As to conditions: read-out: cytotoxicity IC50 HEC-1A, Tables 3A/4B/4C.
The next data set concerns SKOV3-TR. The experiment in a line: MTT cytotoxicity assay, SKOV3-TR.
In another data set the test system is DLD-Seckle. In words: MTT cytotoxicity assay, DLD-Seckle. As to conditions: read-out: cytotoxicity IC50 DLD-Seckle.
In the next data set the test system is DLD-BRCA2-Ve. The experiment in a line: MTT cytotoxicity assay, DLD-BRCA2-Ve. The settings on record: read-out: cytotoxicity IC50 DLD-BRCA2-Ve.
Another data set deals with ME180. The experiment in a line: MTT cytotoxicity assay, ME180. The settings on record: Homo sapiens, read-out: IC50 ME180. The class given is cell-based.
In the next data set the test system is MM.1S. In words: MTT cytotoxicity assay, MM.1S. Format: cell-based. As to conditions: Homo sapiens, MM1.S, read-out: IC50 MM.1S.
Another data set has as its system ANBL6. The experiment in a line: MTT cytotoxicity assay, ANBL6. Format: cell-based. The settings on record: Homo sapiens, read-out: IC50 ANBL6.
The next data set has as its system ANBL6-V10R. In words: MTT cytotoxicity assay, ANBL6-V10R. The class given is cell-based. The settings on record: read-out: IC50 ANBL6-V10R.
A further data set relates to Mouse Skin Keratinocytes. The experiment in a line: MTT cytotoxicity assay, mouse skin keratinocytes. As to conditions: Keratinocyte, read-out: IC50 Keratinocytes. The class given is cell-based.
Another data set deals with CaSki. In words: MTT cytotoxicity assay, CaSki.
The next data set relates to intracellular ATP. In words: Luciferase-based ATP measurement, ES2 cells. Format: cell-based, human. The settings on record: luciferase expressing ES2 cells, 4 hr, sublethal doses. As for the experimental part:
Briefly, firefly luciferase expressing ES2 cells were treated for 4 hr with compounds at sublethal doses and the bioluminescence was measured in intact cells using luminometer by adding luciferin. […] This is associated with enhanced glycolysis while bortezomib suppresses oxidative phosphorylation (OXPHOS) (66).
ATP measurement assay: To measure ATP levels in cells, luciferase based bioluminescence assay was performed. Briefly cells stably expressing firefly luciferase plated in a 6 well plate (250,000 cells/well) in growth medium. After 24 h incubation, cells were treated with compounds at indicated concentrations for the period of 4 h and the bioluminescence was measured by IVIS 200 imager in intact cells by adding luciferin substrate to the growth medium. Cell viability was assessed in parallel using an MTT assay.

Another data set has as its system BR5-FvB1. In words: MTT cytotoxicity assay, BR5-FvB1. As to conditions: Mus musculus, read-out: cytotoxicity IC50 BR5-FvB1.
Setting [2] is: read-out: cytotoxicity IC50 FaDu.
Setting [3] is: read-out: cytotoxicity IC50 SiHa, Tables 3A/4B/4C, MTT assay.
[4] abbreviates: SK-OV-3, read-out: cytotoxicity IC50 SKOV3.
Setting [5] is: read-out: cytotoxicity IC50 HCT116, Tables 3A/4B/4C, MTT assay.
[6] abbreviates: read-out: cytotoxicity IC50 SKOV3-TR, Tables 3A/4B/4C, MTT assay.
Setting [7] is: read-out: cytotoxicity IC50 CasKi, Tables 3A/4B/4C, MTT assay.
Setting [8] is: Table 3, MTT, 48 hr, normal Mouse Skin.
The mark [9] stands for this setting: read-out: IC50 HCT116, Table 3, MTT, 48 hr, Colon.

For orientation: NOAEL means the highest tested level that showed no adverse finding.

Protocol for ANBL6-V10R: (§1) The cytotoxic efficacy of selected compounds was assessed against multiple myeloma (MM) cell lines, as this is a validated clinical target for the licensed proteasome inhibitors.
(§2) Cell lines and cytotoxicity assays: All cell lines were obtained from the American Type Culture Collection (ATCC) and cultured in the specified medium supplemented with 10% fetal bovine serum, 100 IU/mL penicillin, and 100 μg/mL streptomycin at 37° C. in a humidified 5% CO2/95% air incubator. […] To assess drug cytotoxicity, cells were seeded at 2,500 cells/well (10,000 cells/well for MM lines) in 100 μL medium in 96-well plate and after 24 treated with compounds for 72 h, incubated according to the manufacturer's protocol with the Thiazolyl Blue Tetrazolium Bromide (Sigma, M2128) and A570 measured using a Benchmark Plus microplate spectrophotometer (BIO-RAD). IC50 data was analyzed by Graphpad Prism software.
Protocol for BR5-FvB1: (§3) Cell lines and cytotoxicity assays: All cell lines were obtained from the American Type Culture Collection (ATCC) and cultured in the specified medium supplemented with 10% fetal bovine serum, 100 IU/mL penicillin, and 100 μg/mL streptomycin at 37° C. in a humidified 5% CO2/95% air incubator. […] To assess drug cytotoxicity, cells were seeded at 2,500 cells/well (10,000 cells/well for MM lines) in 100 μL medium in 96-well plate and after 24 treated with compounds for 72 h, incubated according to the manufacturer's protocol with the Thiazolyl Blue Tetrazolium Bromide (Sigma, M2128) and A570 measured using a Benchmark Plus microplate spectrophotometer (BIO-RAD). IC50 data was analyzed by Graphpad Prism software. In the chirality studies the cells were treated with compounds for 48 h, and the cells were incubated and measured via the preceeding protocols.
Protocol for DLD-BRCA2-Ve: as §3
Protocol for DLD-Seckle: as §3
Protocol for DLD1: as §3
Protocol for ME180: as §2
Protocol for MM.1S: as §1, §2
Protocol for Mouse Skin Keratinocytes: as §2
Protocol for PEO14: as §3
Protocol for TC1-Lu: as §3

`CC1/C(=C\c2ccc([N+](=O)[O-])cc2)C(=O)/C(=C/c2ccc([N+](=O)[O-])cc2)CN1C(=O)[C@H](Cc1ccccc1)NC(=O)CCl` (stereo partly drawn) [RA414]: in data set [1], the “accumulation of polyubiquitinated proteins” value (“accumulation” for short) is reported as “enhanced the accumulation of polyubiquitinated proteins”. In the data set “in vivo”, the no-observed-adverse-effect level (NOAEL) was 3 mg/kg. The IC50 was 78 nM in the data set on FaDu (setting [2]); 30 nM in the data set on PEO14; 7.5 nM in the data set with SiHa (setting [3]); 1120 nM in the data set on KLE; under 40 nM in the data set with DLD1; under 20 nM with SKOV3 (setting [4]). The IC50 was 20 nM in the data set on HCT116 (setting [5]); 40 nM with TC1-Lu; 196 nM with HEC-1A; under 20 nM in the data set on SKOV3-TR (setting [6]); under 40 nM in the data set with DLD-Seckle; under 40 nM with DLD-BRCA2-Ve.

Turning to `O=C(CCl)N[C@@H](Cc1ccccc1)C(=O)N1C/C(=C\c2ccc([N+](=O)[O-])cc2)C(=O)/C(=C/c2ccc([N+](=O)[O-])cc2)C1` [RA375], the IC50 in the data set with ME180 (ME-180, 48 h) was 20 nM; in the data set with MM.1S (48 h) it was 11 nM; with ANBL6 (ANBL-6, 48 h), 12 nM; in the data set on ANBL6-V10R (48 h), 16 nM; with Mouse Skin Keratinocytes (Mus musculus, 48 h), over 1000 nM; in the data set with FaDu (48 h, read-out: IC50 FaDu) it was 142 nM. The IC50 in the data set on SiHa (read-out: IC50 SiHa) was found to be 41 nM; in the data set on DLD1 it was 24 nM; in the data set on CaSki (read-out: IC50 CaSki), 43 nM; with CaSki (setting [7]), 3 nM; in the data set on SKOV3 (setting [4]) it was 26 nM; in the data set with HCT116 (setting [5]), 89 nM. The values for the IC50 in the data set with SKOV3-TR (setting [6]), with DLD-Seckle and in the data set on DLD-BRCA2-Ve were 22 nM, 43 nM and 18 nM, respectively.

Take `C[C@H]1/C(=C\c2ccc([N+](=O)[O-])cc2)C(=O)/C(=C/c2ccc([N+](=O)[O-])cc2)CN1C(=O)[C@@H](N)Cc1ccccc1`: the “accumulation” value in data set [1] was “enhanced the accumulation of polyubiquitinated proteins”. In addition, the no observed adverse effect level (NOAEL) in “in vivo” worked out at 30 mg/kg. Besides, in the data set on intracellular ATP, the “ATP-dependent bioluminescence (intracellular ATP levels)” value (from here on “ATP-dependent bioluminescence”) was “reduced bioluminescence”. Besides, the IC50 in the data set with FaDu (setting [2]) was 78 nM; with PEO14, 92 nM; in the data set on SiHa (setting [3]) it was 34 nM; with KLE it was 1460 nM; in the data set on DLD1, 164 nM; with CaSki (setting [7]) it was 27 nM. Besides, the IC50 in the data set on SKOV3 (setting [4]) came to 40 nM; in the data set with HCT116 (setting [5]), 80 nM; with TC1-Lu it was 114 nM; with HEC-1A, 207 nM; in the data set with SKOV3-TR (setting [6]), 60 nM; with BR5-FvB1 it was 125 nM. In addition, the IC50 in the data set on DLD-Seckle and in the data set with DLD-BRCA2-Ve was 55 nM in each case.

On to `CC(C)C[C@H](NC(=O)[C@H](Cc1ccccc1)NC(=O)c1cnccn1)B(O)O` [Bortezomib, bortezomib, reference compound], for which the IC50 in the data set with Mouse Skin Keratinocytes (setting [8]) was over 100 nM; in the data set on PEO14 it was 30 nM; with KLE it was 1190 nM; in the data set with DLD1 it was 4.8 nM; in the data set with SKOV3 (setting [4]) it was 1.5 nM; in the data set with HCT116 (setting [9]) it was 3.2 nM. The IC50 is 4.5 nM in the data set on TC1-Lu, 153 nM with HEC-1A and under 20 nM in the data set on BR5-FvB1. Moreover, the “accumulation” value in data set [1] was “enhanced the accumulation of polyubiquitinated proteins”. Further, in the data set “in vivo”, the no-observed-adverse-effect level (NOAEL) was 0.75 mg/kg. Besides, the “ATP-dependent bioluminescence” value in the data set on intracellular ATP is on record as “not evident”.

With `N[C@@H](Cc1ccccc1)C(=O)N1C/C(=C\c2ccc([N+](=O)[O-])cc2)C(=O)/C(=C/c2ccc([N+](=O)[O-])cc2)C1` [RA183, reference compound], the IC50 was 293 nM with ME180 (ME-180, 48 h); 46 nM in the data set with MM.1S (48 h); 58 nM in the data set with ANBL6 (ANBL-6, 48 h); 103 nM in the data set with ANBL6-V10R (48 h); over 1000 nM in the data set on Mouse Skin Keratinocytes (Mus musculus, 48 h); 150 nM with FaDu (setting [2]). Further, the IC50 with SiHa (read-out: IC50 SiHa, Table 3, MTT, 48 hr, Cervical (HPV +ve)) is 263 nM; in the data set on SiHa (setting [3]), 263 nM; in the data set on KLE, 989 nM; with CaSki (read-out: IC50 CaSki, Table 3, MTT, 48 hr, Cervical (HPV +ve)), 312 nM; with CaSki (setting [7]), 312 nM; in the data set on SKOV3 (SK-OV-3, 48 h, read-out: IC50 SKOV3) it was 54 nM. Moreover, the IC50 in the data set with SKOV3 (setting [4]) amounted to 54 nM; in the data set on HCT116 (setting [9]), 193 nM; in the data set on HCT116 (setting [5]), 193 nM; in the data set with HEC-1A, 378 nM; with SKOV3-TR (read-out: IC50 SKOV3-TR, Table 3, MTT, 48 hr, Ovarian, paclitaxel resistant) it was 77 nM; with SKOV3-TR (setting [6]) it was 77 nM. Besides, the “accumulation” value in [1] is listed as “enhanced the accumulation of polyubiquitinated proteins”. Also, in the data set on intracellular ATP, the “ATP-dependent bioluminescence” value is on record as “reduced bioluminescence”.

Turning to `N[C@@H](Cc1ccccc1)C(=O)N1C/C(=C\c2ccc(Cl)c(Cl)c2)C(=O)/C(=C/c2ccc(Cl)c(Cl)c2)C1` [RA190, reference compound], the IC50 in the data set on ME180 (ME-180, Table 3, MTT, 48 hr, Cervical (HPV +ve)) is 183 nM; with MM.1S (Table 3, MTT, 48 hr, Multiple Myeloma), 72 nM; in the data set with ANBL6 (ANBL-6, Table 3, MTT, 48 hr, Multiple Myeloma) it was 67 nM; in the data set with ANBL6-V10R (Table 3, MTT, 48 hr, Multiple Myeloma, bortezomib resistant) it was 55 nM; in the data set on Mouse Skin Keratinocytes (setting [8]), over 1000 nM; with FaDu (setting [2]), 300 nM. The IC50 in the data set on PEO14 was found to be 375 nM; in the data set on SiHa (setting [3]) it was 603 nM; with KLE, 1590 nM; in the data set with CaSki (setting [7]), 324 nM; in the data set on SKOV3 (setting [4]), 73 nM; in the data set with HCT116 (setting [5]) it was 239 nM. Besides, the IC50 is 431 nM in the data set with HEC-1A, 109 nM with SKOV3-TR (setting [6]) and 250 nM in the data set with BR5-FvB1.
